PMC5698723, “Oxetane Grafts Installed Site‐Selectively on Native Disulfides to Enhance Protein Stability and Activity In Vivo” (Angewandte Chemie (International Ed. in English), 2017)

Tests used:
[1] = Stability of stapled cyclic peptides in human plasma; format: in vitro ADME; settings: around 1 mM peptide in H2O (100 µL) + 1 µL reconstituted human plasma, 37 °C, 48 h, HPLC read-out (212 nm)
Procedure: 6. Stability test of stapled cyclic peptides […]
(§1) 27), 15 min, λ = 212nm, flow=3.5)]. […]
A 100 µL aliquot of stapled peptide (around 1 mM) in H2O was treated with 1 µL of
reconstituted human plasma (Sigma-Aldrich) and the resulting mixture vortexed for 30 s and
then shaken at 37 °C. After 48 h, an aliquot of each reaction mixture was analysed by HPLC
(YMC-Pack Pro C18 column (5 µ, 250 mm × 10 mm), isocratic: acetonitrile+0.1% TFA
(§2) /water+0.1% TFA (73-27), 15 min, λ = 212nm, flow=3.5)).

[2] = Stability of stapled cyclic peptides in GSH solution; format: physicochemical; settings: around 1 mM peptide in H2O, 1 mM GSH, 37 °C, 48 h, HPLC read-out (212 nm)
Procedure: 6. Stability test of stapled cyclic peptides
A 100 µL aliquot of stapled peptide (around 1 mM) in H2O was treated with 5.3 µL of a 20 mM GSH solution (to 1 mM) and the resulting mixture vortexed for 30 s and then shaken at 37 °C. After 48 h, an aliquot of each reaction mixture was analysed by HPLC [YMC-Pack Pro C18 column (5 µ, 250 mm × 10 mm), isocratic: acetonitrile+0.1% TFA /water+0.1% TFA (73- […]
as §1
(YMC-Pack Pro C18 column (5 µ, 250 mm × 10 mm), isocratic: acetonitrile+0.1% TFA […]
as §2

SMILES	stability in human plasma [1]	stability in the presence of glutathione (GSH) [2]
C[C@H](N)C(=O)NCC(=O)N[C@H]1CSCC2(COC2)CSC[C@@H](C(=O)O)NC(=O)[C@H](CO)NC(=O)[C@H]([C@@H](C)O)NC(=O)[C@H](Cc2ccccc2)NC(=O)[C@H]([C@@H](C)O)NC(=O)[C@H](CCCCN)NC(=O)[C@H](Cc2c[nH]c3ccccc23)NC(=O)[C@H](Cc2ccccc2)NC(=O)[C@H](Cc2ccccc2)NC(=O)[C@H](CC(N)=O)NC(=O)[C@H](CCCCN)NC1=O [compound 3]	remain intact	remain intact
C[C@@H](O)[C@@H]1NC(=O)[C@H](CCCCN)NC(=O)[C@@H](Cc2c[nH]c3ccccc23)NC(=O)[C@H](Cc2ccccc2)NC(=O)[C@@H](NC(=O)[C@H](N)Cc2ccccc2)CSCC2(COC2)CSC[C@@H](C(=O)N[C@H](CO)[C@@H](C)O)NC1=O [compound 5]	remain intact	remain intact
